Assay results reported in PubChem BioAssay (NCI).
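Dose response: 5 concentrations. Exposure: 48 h. Format: 96-well plates. Endpoint: linear interpolation; highest concentration if not reached. TGI: total growth inhibition.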

Legend:
Assay in all cases: NCI tumour cell line growth inhibition, 48 h
ACHN renal = test system: ACHN renal
U251 CNS = test system: U251 CNS
MCF7 breast = test system: MCF7 breast
SK-MEL-5 melanoma = test system: SK-MEL-5 melanoma
SF-539 CNS = test system: SF-539 CNS
BT-549 breast = test system: BT-549 breast
SN12C renal = test system: SN12C renal
MDA-N = test system: MDA-N
CAKI-1 renal = test system: CAKI-1 renal
HOP-92 NSCLC = test system: HOP-92 NSCLC
SNB-75 CNS = test system: SNB-75 CNS

SMILES	TGI (ACHN renal) [µM]	TGI (U251 CNS) [µM]	TGI (MCF7 breast) [µM]	TGI (SK-MEL-5 melanoma) [µM]	TGI (SF-539 CNS) [µM]	TGI (BT-549 breast) [µM]	TGI (SN12C renal) [µM]	TGI (MDA-N) [µM]	TGI (CAKI-1 renal) [µM]	TGI (HOP-92 NSCLC) [µM]	TGI (SNB-75 CNS) [µM]
CN(C)c1ccc(S(=O)Nc2ccccc2)cc1 (stereo unspecified)	> 100	62.9	> 100	50.7	> 100	28.9	> 100	–	–	–	–
COc1cc(NS(C)(=O)=O)ccc1Nc1cc(C)[nH]c2ccc3nccc3c12	> 100	> 100	> 100	> 100	–	> 100	> 100	> 100	> 100	> 100	–
COc1ccc(C2=N/C(=C\c3ccccc3)C(=O)O2)cc1	> 100	> 100	> 100	–	> 100	–	–	–	–	> 100	> 100
CCN(CCCN(CC)C(=O)Nc1c(C)cccc1C)C(=O)Nc1c(C)cccc1C	> 100	> 100	> 100	> 100	–	> 100	> 100	> 100	> 100	> 100	> 100
COc1ccc(NC(=O)CC(=O)N2N=C(N3c4ccccc4Sc4ccccc43)CC2c2ccccc2)cc1 (stereo unspecified)	> 100	> 100	> 100	> 100	> 100	> 100	> 100	–	> 100	> 100	> 100
O=C(Nc1nccs1)c1c(O)nc2sccn2c1=O	> 10	> 10	> 10	> 10	> 10	–	> 10	> 10	> 10	–	> 10
COc1cccc(CCCNC(=O)Cc2cc(OC)c(OC)cc2CO)c1	> 100	> 100	–	> 100	–	> 100	> 100	> 100	> 100	> 100	> 100
CN(C)C1(N(C)C)Oc2c(c(=O)n(C)c(=O)n2C)C(c2ccc(Br)cc2)C1(F)F (stereo unspecified)	> 100	> 100	> 100	> 100	–	> 100	–	–	> 100	> 100	> 100
O=[N+]([O-])c1ccc(Oc2c(Cl)cc(S(=O)(=O)/N=C(\NO)Nc3ccc(Cl)cc3)cc2Cl)cc1	23.8	25.7	24.1	22.2	26.7	25	25.8	24.8	18.9	11.1	–
CCOC(=O)Cn1c(=O)c2nc(SC)sc2n(-c2ccccc2)c1=O	> 100	> 100	> 100	> 100	–	> 100	> 100	> 100	–	> 100	> 100
O=C(CC(C(=O)c1ccsc1)c1ccc2c(c1)OCO2)c1ccccc1 (stereo unspecified)	> 100	> 100	> 100	> 100	> 100	–	> 100	> 100	> 100	> 100	> 100
CC1(C)C2CCC1(C)[C@H](n1c(=O)n([C@@H]3CC4CCC3(C)C4(C)C)c(=O)n([C@@H]3CC4CCC3(C)C4(C)C)c1=O)C2	> 100	> 100	> 100	> 100	48.6	> 100	–	> 100	> 100	> 100	46.5
CCOC(=O)c1c(C)nc2c3ccccc3c(C#N)c(C)n12	> 100	> 100	> 100	> 100	> 100	> 100	> 100	–	> 100	> 100	75.8
Cc1ccc(C(=C2Sc3ccccc3S2)C(=C2Sc3ccccc3S2)c2ccc(C)s2)s1	> 100	> 100	> 100	> 100	–	> 100	> 100	> 100	> 100	–	> 100
c1c[nH]c(-c2ccc(-c3ccc[nH]3)c3nsnc23)c1	> 86.8	> 66.5	> 100	> 100	> 76.8	> 100	> 100	> 100	> 100	> 100	> 85.8
N#CC12C(=O)N=C(N)C1(C#N)C(c1ccco1)NC1=C2CCCC1 (stereo unspecified)	> 100	> 100	> 100	> 100	–	> 100	> 100	> 100	> 100	> 100	–
CSC(=S)N/N=C(\C)c1ccc(S(=O)(=O)N(C)c2ccccc2)cc1	> 100	> 100	> 100	–	> 100	–	> 100	> 100	> 100	> 100	> 100
Cc1cc2c3c(nc4ccccc42)C(=O)c2ccccc2-c3n1	> 100	> 100	51.2	3.1	61.2	48.4	> 100	–	60.7	> 100	29
CC1=NS(=O)(=O)c2ccccc2N1	> 100	> 100	–	> 100	> 100	–	> 100	–	> 100	> 100	> 100
Oc1ccc([I+]c2ccccc2)cc1O	> 100	> 100	–	> 100	91.2	> 100	> 100	> 100	> 100	28.9	> 100
Cc1ccc2c(c1)C(=O)C1(Cc3ccccc3C1=O)C2 (stereo unspecified)	> 100	> 100	> 100	> 100	> 100	–	> 100	> 100	–	> 100	> 100
O=C(O)CCC(=O)OC1N=C(c2ccccc2Cl)c2cc([N+](=O)[O-])ccc2NC1=O (stereo unspecified)	> 100	> 100	> 100	–	–	> 100	> 100	> 100	> 100	> 100	> 100
